The subject of test [1] is IL-6-induced pSTAT1 in hPBMC. The experiment in a line: IL-6-induced pSTAT1 in hPBMC (flow cytometry, CD4 positive cells). The class given is cell-based. Conditions: Homo sapiens, 10 ng/mL IL-6, CD4 positive cells. As for the experimental part:
(§1) • 1) Preparation of culture medium: 1640 medium+10% fetal bovine serum+1% penicillin/streptomycin+1% non-essential amino acids (all percentages were v/v) • 2) Cells were thawed in a 37° C. water bath and then centrifuged. The cell concentration was adjusted to 5×10^5 cells/mL using the prepared culture medium. • 3) Cell suspension was seeded into a 96-well round-bottom plate at 200 μL/well and incubated at 37° C. for 90 minutes. • 4) Drugs were added, followed by a 37° C. incubation for 30 minutes. • 5) Cells were then stimulated by adding 10 ng/mL of IL-6 or 4 ng/mL of IL-2, followed by a 37° C. incubation for 15 minutes.
(§2) • 1) After completing the stimulation, cells were centrifuged and washed once with staining buffer (DPBS+2% bovine serum albumin). Antibodies were then added for a 30-minute staining process at 4° C. […]
(§3) • 1) Response %=[(MFI value of drug-treated well−mean MFI value of control well)/(mean MFI value of DMSO well−mean MFI value of control well)]*100% was calculated. • 2) The calculated Response % values were input into GraphPad Prism 8 software. […]
(A flow cytometer gives signals particle by particle.)

Test [2] deals with NO secretion by BV-2 cell line. Briefly: NO secretion by LPS/IFN-γ-activated BV-2 cells (Griess Reagent System). The class given is cell-based, Mouse. The method, then: Step 1: BV-2 cells in the exponential growth phase were collected, and viable cells were counted using a Vi-Cell XR cell counter. The cell suspension was adjusted to an appropriate concentration with the culture medium. 160 μL of cell suspension was added to each well of a 96-well cell culture plate, resulting in a final cell concentration of 12,000 cells per well. The culture plate was incubated for 24 hours in a 37° C., 5% CO2 incubator.
Step 2: A 10 mM DMSO compound stock solution was diluted at a ratio of 1:4 using DMSO to prepare a series of 1000× test compound solutions. These 1000× test compound solutions were further diluted at a ratio of 1:100 using cell culture medium to prepare a series of 10× test compound solutions. Finally, the 96-well plate that had been plated with cells the day before was taken out. According to the experimental well plate loading design, 20 μL of the corresponding 10× solution was added to each well, with three duplicate wells for each drug concentration. The final concentrations of the test compounds used in the experiment (i.e., 1× solutions) have a range of 10, 2.5, 0.625, 0.156, 0.0391, 0.0098, and 0.0024 μM. The final DMSO concentration in each well was 0.1%.
After the compound was added, the 96-well plate was incubated for half an hour in the 37° C., 5% CO2 incubator.
After the pre-incubation was completed, 20 μL of culture medium containing 100 ng/mL LPS and 100 ng/mL IFN-γ (final concentrations of 10 ng/mL LPS and 10 ng/mL IFN-7) was added to each well to induce the activation of BV-2 cells. The culture plate was then incubated for 24 hours in the 37° C., 5% CO2 incubator.
Step 3: After 24 hours of treatment with the compound, the culture plate was centrifuged at 1200 rpm for 5 minutes. The supernatant was pipetted into another plate, which was sealed with tinfoil and stored at −20° C. for future ELISA and Griess reagent system assays. The cell culture plate from which the supernatant had been removed was immediately used for cell proliferation assays using the CellTiter-Glo (CTG) method.
Step 5 (NO and CCL5 detection): The CCL5 levels in the supernatant were detected using an ELISA kit (Mouse CCL5/RANTES DuoSet ELISA; R&D; DY478-05), following the instructions provided with the kit. The nitric oxide (NO) levels in the supernatant were detected using the Griess Reagent System (Promega; G2930), following the instructions provided with the kit.
Step 1: Firstly, the optical density values obtained from ELISA and Griess tests were used to plot a standard curve and calculate the absolute concentrations of each sample. The absolute concentration was then calibrated using the CTG fluorescence value corresponding to each sample to obtain the calibrated concentration. The formula for calculating the calibrated concentration was: calibrated concentration=absolute concentration/CTG fluorescence value of the same sample.
Step 2: Based on the calibrated concentration of each sample, the relative percentage of CCL5 or NO secretion (i.e., CCL5 production (%) or NO production (%)) at each test concentration relative to the blank (DMSO) group was calculated. The formula for calculating the relative percentage was: relative percentage %=(calibrated concentration of the test concentration group)/(calibrated concentration of the blank group).
Step 3: Finally, the relative percentage of CCL5 secretion or the relative percentage of NO secretion was plotted against the logarithm of the compound concentration. […]
In general terms: Nitrite, measured by Griess reagent, commonly stands in for NO production.

In test [3] the test system is IL-2-induced pSTAT5 in hPBMC. The experiment in a line: IL-2-induced pSTAT5 in hPBMC (flow cytometry, CD4 positive cells). It counts as cell-based. To be noted: Homo sapiens, 4 ng/mL IL-2, CD4 positive cells. As for the experimental part:
as §1, §2, §3

The subject of another test is rat primary astrocytes. The experiment in a line: Cell viability (CCK-8) in NMO-IgG induced astrocyte injury model. It counts as cell-based.
[4] abbreviates: Rattus norvegicus, Astrocyte, 24 h, read-out: Cell viability percentage, Mean.

pIC50: −log10 of the molar value.

The pIC50 is the negative decadic logarithm of the IC50, by convention in mol/L. For orientation: viability means a read-out of living cells in per cent, often relative to untreated cells.

`CN(c1ncnc2[nH]ccc12)[C@@H]1CCc2cc(C#N)nn2C1` [Compound I] had a negative-log IC50 (pIC50) in test [1] of 7.14. The “Maximum inhibition rate on NO secretion by BV-2” value in test [2] (24 h co-incubation, up to 10 μM) was found to be 100%. Besides, the negative-log IC50 (pIC50) in test [2] (Mus musculus, BV-2, 24 h co-incubation, read-out: IC50 on NO secretion by BV-2) was 6.31. In test [3], this compound gave a pIC50 of 7.44. For the same compound, the “inhibitory effect on cell viability” value in the test with rat primary astrocytes (24 h co-incubation, highest test concentration 20 μM) was “no inhibitory effect on cell viability”. Also, in the test with rat primary astrocytes (setting [4]), the viability at 0.027 µM amounted to 112%, the viability at 0.247 µM was found to be 105%, the viability at 2.222 µM stood at 99.7% and the viability at 20 µM was 99.4%.

For the origin of these results see US20240238299A1, “USE OF PYRROLOPYRIMIDINE COMPOUND” (GUANGZHOU JOYO PHARMATECH CO., LTD, priority 2021, published 2024).
